1 sequence from paper PMC4775864 (Theranostics, 2016) can be followed below.

No end group written: not given here.

The target of this experiment is T1, endogenous EMMPRIN (Mus musculus, UniProt P18572).
T1 sequence (P18572 22-273 isoform P18572-2 limits assumed): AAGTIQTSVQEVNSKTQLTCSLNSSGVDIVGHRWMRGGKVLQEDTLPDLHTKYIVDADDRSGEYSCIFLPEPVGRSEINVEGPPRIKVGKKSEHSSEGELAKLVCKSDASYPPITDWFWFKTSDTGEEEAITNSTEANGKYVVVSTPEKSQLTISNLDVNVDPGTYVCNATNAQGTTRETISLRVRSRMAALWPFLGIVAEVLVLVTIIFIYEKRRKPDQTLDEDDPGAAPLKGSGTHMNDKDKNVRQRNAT
The experiment is described as follows: Affinity measurements: fluorescence binding to adherent HL1 cells.

As to YKLPGHHHHYRP [AP-9], the Kd worked out at 8 ± 0.6 nM.

One may read the Kd as a measure of binding affinity in units of concentration. A low value points to a tighter complex.
